Data set [1] relates to human FVIII inhibited plasma. The data set is described as follows: Defined Intrinsic Thrombin Generation Assay (DITGA, triggered by FXIa and phospholipids). The data set is classed as biochemical. The note with it: for Activity in the Defined Intrinsic Thrombin Generation Assay: summary. From the text:
The intrinsic pathway of thrombin generation may be assayed in a thrombin generation assay by including FXIa and phospholipids. In such an assay, which is similar to an activated partial thromboplastin time (aPTT) test, thrombin generation is solely directed through the intrinsic pathway, and is FVIII dependent. A suitable assay is the Defined Intrinsic Thrombin Generation Assay described below. Alternatively, by employing low concentrations of TF and phospholipids instead of FXIa and phospholipids, thrombin is generated by both the extrinsic (tissue factor) and the intrinsic pathways. This form of the thrombin generation assay is the more physiologic one, as both thrombin generation pathways are involved; it is partially FVIII dependent. A suitable assay is the Defined Dual-Pathway Thrombin Generation Assay.
The Defined Intrinsic Thrombin Generation Assay is performed as follows. FVIII activity of human plasma is inhibited by incubating (2 hours, 37° C.) 40 μl of human normal plasma with 10 μl heat inactivated anti-human FVIII plasma raised in goat (600 BU/ml, 6 hours incubated at 56° C.). […] Instead of FVIII-inhibited plasma, FVIII inhibitor patient plasma or several depleted plasmas can be used. The micro-plate is immediately put into a GENios Plus (Tecan) or Safire 2 (Tecan) fluorescence reader and the fluorescence signal (ex 340 nm/em 440 nm) is followed kinetically by reading the plate every 21 seconds.
For calculation of activity equivalent units experiments are performed with dilutions of Factor Eight Inhibitor Bypassing Agent (FEIBA, Baxter AG), Immunate (human FVIII, purified plasma derived) reference standard (Baxter AG) or Recombinate standard (human FVIII, purified recombinant, Baxter AG). A linear fit of the logarithm of FEIBA (FVIII) concentration plotted against thrombin generation time at peak thrombin results in a standard curve. With this curve FEIBA (FVIII) equivalent activity is calculated for a defined peptide concentration. […] Thus, where a concentration of 100 μM is given, the actual concentration in the final assay volume in 40 μM.
Compounds were screened using the “Defined intrinsic thrombin generation assay” in which thrombin generation was quantified in vitro in FVIII-inhibited human plasma in the presence of Factor XIa and phospholipid vesicles. Further compounds were screened in the above assay, and in the “Defined dual-pathway thrombin generation assay” using tissue factor and phospholipids instead of Factor XIa and phospholipids, as described in the specific description.
Various concentrations of each peptide were tested in the defined intrinsic thrombin generation assay using human FVIII inhibited plasma.

The nature of a further data set: physchem. The note with it: for solubility kinetic: pH 7.4.
The next data set in a line: Plasma stability. The conditions noted are these: human.

This note sets out measurements from patent US10822376B2, “Biologically active peptides” (Baxalta Incorporated, priority 2008, dated 2020).

≈ marks a conversion by molar mass, not a printed value. *1 amine or outer side, *2 acyl side, *3 side chain or, on linkers, in order; H or OH if unused. Where a SMILES comes first, the peptide text is derived from it. Bridges are numbered along the chain shown (N, C = ends). [ ]: non-standard residue; d: D form. The star is where a group is joined. X2 = NCCCC[C@H](N)C(=O)NCCCOCCOCCOCCCN*; Suc = O=C(CCC(=O)[*:2])[*:1]; X3 = CC(=O)NCCCOCCOCCOCCCN* Some results are limits rather than exact numbers.

Experimental for Plasma stability: Half-life of compounds in human or mouse plasma, or percentage of compound remaining after an incubation in human or mouse plasma, is determined as follows. In the experimental procedure, test compound concentrations are 5 μM, prepared from test compound stock solutions of 10 mM in DMSO. Propantheline is used as a standard. […] All of the samples are incubated in a water bath at 37° C. […] After a chosen duration of incubation (generally at t=60 min) each sample is mixed with a further 500 μl acetonitrile. The samples are mixed on a vortex mixer for 30 s and placed on ice for 10 min and collected for centrifugation. Samples are centrifuged at 20 000 g for 10 min at 4° C. 500 μl supernatant is transferred into a new 1.5 ml Eppendorf tube and an equal volume of acetonitrile is added. The sample is mixed again for 30 s using a vortex mixer. After a second centrifugation step (20 000 g, 10 min, 4° C.) 250 μl of the supernatant is transferred into HPLC glass vials for HPLC-MS analysis. Conditions for performing HPLC are as follows: Injection-volume is set to 20 μl. Temperature is set to 25° C. A linear gradient from 95:5 to 5:95 water:acetonitrile both containing 0:05% trifluoroacetic acid (TFA) (v/v) is applied at a flow rate of 0.3 ml/min for 10 min. The PDA-detector is scanning from 210-400 nm.

The term kinetic solubility denotes the concentration staying in solution when a stock, usually in DMSO, is diluted into the medium. With `CSCC[C@H]1NC(=O)[C@@H](Cc2ccc(O)cc2)NC(=O)[C@H](NC(=O)CCC(=O)NCCCOCCOCCOCCCNC(C)=O)CSSC[C@H](C(=O)N[C@H](Cc2ccc(O)cc2)C(=O)N[C@H](CCC(=O)O)C(N)=O)NC(=O)[C@@H](CC(=O)O)NC(=O)[C@@H](Cc2ccc(O)cc2)NC(=O)[C@@H](Cc2c[nH]c3ccccc23)NC(=O)[C@@H](Cc2ccccc2)NC1=O` [Peptide B05, Ac-TTDS-(cymfwydc)-ye-NH2] ({X3-Suc}-[dC][dY][dM][dF][dW][dY][dD][dC][dY][dE]-NH2; disulfide 1-8), the “Thrombin peak time given as FEIBA equivalent activity” value (shortened to “Thrombin peak time given”) turned out to be 126 mU/ml in data set [1] (peptide 12.5 μM); 152 mU/ml in data set [1] (peptide 25 μM); 270 mU/ml in data set [1] (peptide 50 μM); 649 mU/ml in data set [1] (peptide 100 μM); 1089 mU/ml in data set [1] (peptide 200 μM). Also, in data set [1], the “Activity in the Defined Intrinsic Thrombin Generation Assay” value is “possess activity”. The compound further had a kinetic solubility in “physchem” of 174 µM (≈ 307 µg/mL). Also, the fraction remaining at 0.5 h, 5 μM in “Plasma stability” turned out to be 112%.

As usually defined, the solubility is the concentration that dissolves in the medium under given conditions. Lower therefore signals little dissolved substance. Take `CSCC[C@H]1NC(=O)[C@@H](Cc2ccc(O)cc2)NC(=O)[C@H](NC(=O)CCC(=O)NCCCOCCOCCOCCCNC(=O)[C@@H](N)CCCCN)CSSC[C@H](C(=O)N[C@H](Cc2ccc(O)cc2)C(=O)N[C@H](CCC(=O)O)C(N)=O)NC(=O)[C@@H](CC(=O)O)NC(=O)[C@@H](Cc2ccc(O)cc2)NC(=O)[C@@H](Cc2c[nH]c3ccccc23)NC(=O)[C@@H](Cc2ccccc2)NC1=O` [Peptide B06, K-TTDS-(cymfwydc)-ye-NH2] ({X2-Suc}-[dC][dY][dM][dF][dW][dY][dD][dC][dY][dE]-NH2; disulfide 1-8): the “Thrombin peak time given” value in data set [1] (peptide 12.5 μM) worked out at 95 mU/ml; in data set [1] (peptide 25 μM) it was 157 mU/ml; in data set [1] (peptide 50 μM) it was 172 mU/ml; in data set [1] (peptide 100 μM), 378 mU/ml; in data set [1] (peptide 200 μM), 902 mU/ml. The “Activity in the Defined Intrinsic Thrombin Generation Assay” value in data set [1] is “possess activity”. The same compound displayed a solubility (kinetic) in the data set “physchem” of 48 µM (≈ 88.8 µg/mL). This compound registered a solubility in the data set “physchem” (pH 7.4, Solubility in PBS pH 7.4) not below 25 µM. Also, the amount remaining at 0.5 h, 5 μM in “Plasma stability” was 93%.

Regarding `CC[C@@H](C)[C@@H](NC(=O)[C@@H](CO)NC(C)=O)C(=O)N[C@H](CCSC)C(=O)N[C@H](Cc1ccccc1)C(=O)N[C@H](Cc1c[nH]c2ccccc12)C(=O)N[C@H](Cc1ccc(O)cc1)C(=O)N[C@H](CC(=O)O)C(=O)N[C@H](CCC(=O)O)C(=O)N[C@H](Cc1ccc(O)cc1)C(=O)N[C@H](CCC(=O)O)C(N)=O` [Peptide B07, Ac-simfwydeye-NH2] (Ac-[dS][dI][dM][dF][dW][dY][dD][dE][dY][dE]-NH2), the “Activity in the Defined Intrinsic Thrombin Generation Assay” value in data set [1] is reported as “possess activity”. Further, the kinetic solubility in the data set “physchem” turned out to be 195 µM (≈ 278 µg/mL). Besides, in “Plasma stability”, the share remaining at 0.5 h, 5 μM is 89%.

On to Ac-VWDLYFEIVW-NH2 [Peptide A19], for which the “Thrombin peak time given” value turned out to be 383 mU/ml in data set [1] (peptide 6.25 μM); 495 mU/ml in data set [1] (peptide 12.5 μM); 525 mU/ml in data set [1] (peptide 25 μM); 663 mU/ml in data set [1] (peptide 50 μM); 826 mU/ml in data set [1] (peptide 100 μM). Further, in data set [1], the “Activity in the Defined Intrinsic Thrombin Generation Assay” value is reported as “possess activity”. Besides, the solubility (kinetic) in the data set “physchem” was found to be 14 µM. The fraction remaining at 0.5 h, 5 μM in the data set “Plasma stability” is 99%.
